Legend:
Experiment in all cases: relative viability (nuclei count vs DMSO), 5 days (fraction); higher = more cells survive
VX-702 + Olaparib = compound: NC(=O)c1ccc(N(C(N)=O)c2c(F)cccc2F)nc1-c1ccc(F)cc1F [VX-702] + O=C(c1cc(Cc2n[nH]c(=O)c3ccccc23)ccc1F)N1CCN(C(=O)C2CC2)CC1 [Olaparib] (partner 8 µM)
Outline: (§1)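 A single step with final 0.05% Triton X-100, 1% formaldehyde and 1 ug/ml Hoechst fixed the cells and stained nuclei 5 days after treatment. Lung cancer cell lines in 1536-well plates had been treated by pin tool the day after seeding with one drug alone or a fixed anchor-drug dose plus five library-drug doses (not always all listed) in √10 steps, and nuclei were counted on 4× images. Relative viability is the ratio of nuclei in treated wells to nuclei in vehicle wells, taken as the median of duplicate plates.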

Dabrafenib + Foretinib = compound: CC(C)(C)c1nc(-c2cccc(NS(=O)(=O)c3c(F)cccc3F)c2F)c(-c2ccnc(N)n2)s1 [Dabrafenib] + COc1cc2c(Oc3ccc(NC(=O)C4(C(=O)Nc5ccc(F)cc5)CC4)cc3F)ccnc2cc1OCCCN1CCOCC1 [Foretinib] (partner 0.25 µM)
Outline: as §1

Dabrafenib + Pictilisib = compound: CC(C)(C)c1nc(-c2cccc(NS(=O)(=O)c3c(F)cccc3F)c2F)c(-c2ccnc(N)n2)s1 [Dabrafenib] + CS(=O)(=O)N1CCN(Cc2cc3nc(-c4cccc5[nH]ncc45)nc(N4CCOCC4)c3s2)CC1 [Pictilisib] (partner 1 µM)
Outline: as §1

VX-702 + Tozasertib = compound: NC(=O)c1ccc(N(C(N)=O)c2c(F)cccc2F)nc1-c1ccc(F)cc1F [VX-702] + Cc1cc(Nc2cc(N3CCN(C)CC3)nc(Sc3ccc(NC(=O)C4CC4)cc3)n2)n[nH]1 [Tozasertib] (partner 0.1 µM)
Outline: as §1

Row | Cell Line | relative viability (VX-702 + Olaparib; first compound 0.02 µM) | relative viability (VX-702 + Olaparib; first compound 0.2 µM) | relative viability (VX-702 + Olaparib; first compound 0.6325 µM) | relative viability (VX-702 + Olaparib; first compound 2 µM) | relative viability (Dabrafenib + Foretinib; first compound 0.003 µM) | relative viability (Dabrafenib + Foretinib; first compound 0.009487 µM) | relative viability (Dabrafenib + Foretinib; first compound 0.03 µM) | relative viability (Dabrafenib + Foretinib; first compound 0.09487 µM) | relative viability (Dabrafenib + Foretinib; first compound 0.3 µM) | relative viability (Dabrafenib + Pictilisib; first compound 0.003 µM) | relative viability (Dabrafenib + Pictilisib; first compound 0.009487 µM) | relative viability (Dabrafenib + Pictilisib; first compound 0.03 µM) | relative viability (Dabrafenib + Pictilisib; first compound 0.09487 µM) | relative viability (Dabrafenib + Pictilisib; first compound 0.3 µM) | relative viability (VX-702 + Tozasertib; first compound 0.02 µM) | relative viability (VX-702 + Tozasertib; first compound 0.2 µM) | relative viability (VX-702 + Tozasertib; first compound 0.6325 µM) | relative viability (VX-702 + Tozasertib; first compound 2 µM)
1 | NCI-H1437 | 0.656 | 0.633 | 0.643 | 0.691 | 1.26 | 1.27 | 1.25 | 1.23 | 1.26 | 0.385 | 0.478 | 0.481 | 0.46 | 0.702 | 0.412 | 0.432 | 0.405 | 0.45
2 | NCI-H1650 | 0.78 | 0.813 | 0.806 | 1.16 | 1.03 | 1.3 | 0.895 | 1.45 | 1.71 | 0.401 | 0.841 | 0.404 | 0.647 | 0.814 | 0.353 | 0.305 | 0.353 | 0.494
3 | NCI-H1651 | 0.178 | 0.174 | 0.183 | 0.151 | 0.725 | 0.728 | 0.631 | 0.799 | 0.761 | 0.534 | 0.58 | 0.559 | 0.554 | 0.596 | 0.728 | 0.753 | 0.624 | 0.829
4 | NCI-H1666 | 0.804 | 0.754 | 0.826 | 0.733 | 0.907 | 0.944 | 0.951 | 0.969 | 1.1 | 0.473 | – | 0.474 | 0.387 | 0.448 | 0.593 | – | 0.586 | 0.583
5 | NCI-H1734 | 0.637 | 0.547 | 0.51 | 0.523 | – | 0.963 | 0.73 | 0.811 | 0.965 | – | 0.522 | 0.38 | 0.424 | 0.399 | 0.277 | 0.248 | 0.236 | 0.222
6 | NCI-H1755 | 0.911 | 0.897 | 0.799 | 0.876 | 0.879 | 0.894 | 0.767 | 0.876 | 0.911 | 0.444 | 0.414 | 0.237 | 0.418 | 0.342 | 0.599 | 0.592 | 0.597 | 0.653
7 | NCI-H1793 | 0.939 | – | 0.858 | 1.01 | – | 0.93 | – | – | 0.598 | 0.366 | 0.313 | 0.329 | 0.392 | 0.323 | 0.344 | 0.309 | 0.248 | 0.322
8 | NCI-H1915 | 0.28 | 0.257 | 0.238 | 0.241 | 1.2 | 1.08 | 1.09 | 0.87 | 0.949 | 0.902 | 1.06 | 0.862 | 0.758 | 0.578 | 0.411 | 0.43 | 0.42 | 0.46
9 | NCI-H1944 | 0.413 | 0.435 | 0.432 | 0.403 | 0.832 | 0.887 | 0.948 | 0.827 | 0.85 | 0.36 | 0.343 | 0.284 | 0.438 | 0.368 | 0.252 | 0.245 | 0.252 | 0.253
10 | NCI-H1975 | 0.792 | 0.746 | 0.809 | 1.1 | 0.965 | 0.907 | 0.922 | 0.849 | 0.957 | 0.267 | 0.308 | 0.27 | 0.257 | 0.234 | 0.792 | 0.724 | 0.713 | 0.934
11 | NCI-H1993 | 0.5 | 1.06 | 1.06 | 1.05 | 0.762 | 0.852 | 0.64 | 0.71 | 0.901 | 0.811 | 0.789 | 0.723 | 0.625 | 0.728 | 0.525 | 0.591 | 0.623 | 0.806
12 | NCI-H2009 | 0.751 | 0.705 | 0.739 | 0.842 | 1.21 | 1.18 | 1.24 | 0.995 | 0.911 | 0.292 | 0.797 | 0.475 | 0.334 | 0.346 | 0.765 | 0.729 | 0.728 | 0.988
13 | NCI-H2023 | 0.459 | 0.461 | 0.552 | 0.637 | 0.866 | 0.922 | 0.796 | 0.877 | 1.02 | 0.171 | 0.271 | 0.207 | 0.283 | 0.267 | 0.264 | 0.308 | 0.296 | 0.38
14 | NCI-H2085 | 0.818 | 0.824 | 0.878 | 0.833 | 0.984 | 0.975 | 0.981 | 0.899 | 1.08 | 0.381 | 0.481 | 0.328 | 0.452 | 0.462 | 0.847 | 0.762 | 0.864 | 0.789
15 | NCI-H2087 | 0.552 | 0.58 | 0.669 | 0.709 | – | 1.04 | 0.988 | 0.959 | 1.09 | 0.38 | 0.819 | 1.08 | 0.728 | 0.703 | 0.277 | 0.236 | 0.284 | 0.281
16 | NCI-H2126 | 0.901 | 0.91 | 0.945 | 0.98 | 1.15 | 1.22 | 1.15 | 1 | 1.43 | 0.46 | 0.514 | 0.529 | 0.543 | 0.595 | 0.816 | 0.859 | 0.783 | 1.04
17 | NCI-H2170 | 0.611 | 0.546 | 0.631 | 0.676 | 1.03 | 0.539 | 0.961 | 1.01 | 1.11 | 0.251 | 0.394 | 0.293 | 0.311 | 0.323 | 0.722 | 0.696 | 0.753 | 0.871
18 | NCI-H2228 | 0.866 | 0.794 | 0.754 | 0.864 | – | 0.95 | 0.797 | 0.749 | 0.97 | 0.331 | 0.386 | 0.415 | 0.316 | 0.483 | 0.314 | 0.319 | 0.199 | 0.23
19 | NCI-H2347 | 0.498 | 0.467 | 0.638 | 0.456 | – | 1.01 | – | – | 0.932 | 0.693 | 0.6 | 0.381 | 0.57 | 0.459 | 0.592 | – | 0.505 | 0.521
20 | NCI-H2405 | 0.931 | 0.805 | 0.897 | 0.901 | – | 0.985 | – | 0.949 | 1.07 | – | 0.305 | – | 0.314 | 0.316 | 0.816 | 0.724 | 0.717 | 0.726
21 | NCI-H3122 | 0.636 | 0.61 | 0.66 | 0.555 | 1.04 | 0.959 | 0.935 | 0.904 | 0.97 | 0.581 | 0.629 | 0.793 | 0.692 | 0.719 | 0.328 | 0.34 | 0.379 | 0.49
22 | PC-3 [JPC-3] | 1.2 | 1.14 | 1.16 | 1.31 | 1 | 1.09 | 1.1 | 0.997 | 1.01 | 0.642 | 0.982 | 0.916 | 0.745 | 0.818 | 0.883 | 0.896 | 0.922 | 0.957
23 | PC-14 | 0.315 | 0.329 | 0.338 | 0.282 | 0.861 | 0.972 | 0.933 | 0.979 | 0.958 | 0.761 | 0.862 | 0.655 | 0.688 | 0.696 | 0.559 | 0.527 | 0.551 | 0.587
24 | RERF-LC-KJ | 1.01 | 0.854 | 0.921 | 0.901 | 0.854 | 0.859 | 0.845 | 0.935 | 1.09 | 0.575 | 0.592 | 0.455 | 0.616 | 0.748 | 0.538 | 0.477 | 0.541 | 0.463
25 | SK-LU-1 | 0.504 | 0.435 | 0.526 | 0.567 | – | 0.848 | 0.633 | 0.64 | 0.757 | – | 0.668 | 0.385 | 0.416 | 0.397 | 0.337 | 0.315 | 0.311 | 0.476
26 | SK-MES-1 | 0.679 | 0.681 | 0.622 | 0.696 | 0.653 | 0.905 | 1 | 0.796 | 0.995 | 0.363 | 0.416 | 0.269 | 0.376 | 0.377 | 0.92 | 0.944 | 0.914 | 0.995
27 | SW 1573 | 0.495 | 0.445 | 0.438 | 0.448 | 0.757 | 0.992 | 0.806 | 1.01 | 1.05 | 0.501 | 0.474 | 0.454 | 0.426 | 0.505 | 0.145 | 0.168 | 0.173 | 0.243
28 | UMC-11 | 0.346 | 0.352 | 0.368 | 0.269 | 1.13 | 1.12 | 1.06 | 0.984 | 1.13 | 0.749 | 0.819 | 0.621 | 0.832 | 0.888 | 0.202 | 0.207 | 0.186 | 0.198

Reference: the supplement of paper PMC10307832
